# Source: PubChem BioAssay AID712 (Emory University Molecular Libraries Screening Center, 2007)
# Active and inactive are the calls of the source. The rule behind the calls is not given here.
# Target: Heat shock protein HSP 90-alpha (Homo sapiens) (UniProt P07900)
# Assay: Hsp90 blockade concentration-response – dose response (AID 712)
# Conditions: Hsp90 inhibition assay
row,Compound,IC50
1,CCOc1ccc2ccccc2c1-c1cc(NS(=O)(=O)c2ccc(C)cc2)ccc1N,> 50 µM (inactive)
2,CC(=O)Oc1cc2c(C(=O)NCCCN3CCOCC3)c(C)oc2c2ccccc12,4.65 µM
3,Nc1ccc(NS(=O)(=O)c2ccccc2N)cc1-c1ccccc1O,> 50 µM (inactive)
4,CC(OC(=O)c1cccs1)C(=O)NCc1cccs1 (stereo not drawn),> 50 µM (inactive)
5,CC(=O)Oc1cc2c(C(=O)NCCN3CCOCC3)c(C)oc2c2ccccc12,19.7 µM
6,COc1ccc(NS(=O)(=O)c2ccccc2)c(OC)c1,> 50 µM (inactive)
7,c1ccc2[nH]c(SCc3ccc(-c4nnco4)cc3)nc2c1,> 50 µM (inactive)
8,Cc1coc2c(O)cc3c(c12)OC1(N2CCCCC2)C(=O)NCCCC31 (stereo not drawn),6.62 µM
9,Cc1cc(=O)oc2c(N)c(O)ccc12,> 50 µM (inactive)
10,Nc1cc(N)nc(SCCOc2ccccc2F)n1,> 50 µM (inactive)
11,Cc1ccc2[nH]c3c(c2c1)CN(C(=O)CN1CCN(c2ccccc2)CC1)CC3,> 50 µM (inactive)
12,COc1ccc(S(=O)(=O)Nc2ccc3c(c2)OCO3)cc1OC,inactive
13,COc1ccc2c(c1-c1cc(NS(=O)(=O)c3ccc(C)cc3)ccc1N)OCO2,> 50 µM (inactive)
14,CCCc1cc(-c2[nH]ncc2-c2ccc3c(c2)OCCCO3)c(O)cc1O,12.2 µM
15,Cc1ccc(S(=O)(=O)N2CCC(C(=O)N[C@@H](C)C(=O)Nc3ccc4c(c3)OCO4)CC2)cc1,11.9 µM
16,O=C(NCCN1CCOCC1)NC1(C(F)(F)F)Oc2ccc(Cl)cc2O1 (stereo not drawn),> 50 µM (inactive)
17,O=C1NCCCC2c3cc(O)c4ccccc4c3OC12N1CCCCC1 (stereo not drawn),5.79 µM
18,CC(=O)Nc1cnc2ccccc2n1,inactive
19,CCN(CC)CC(O)c1ccnc2c(O)cccc12 (stereo not drawn),> 50 µM (inactive)
20,CCN(CC)CCCCCNc1cc(O)cc2cccnc12,6.25 µM
21,COc1cc(N)c2nccc(OCc3ccccc3)c2c1,> 50 µM (inactive)
22,CC(=O)CCCNc1c(OCc2ccccc2)ccc2c(C)cc(=O)oc12,> 50 µM (inactive)
23,O=C1c2ccccc2C(=O)N1Cc1ccc2c(c1)OCO2,> 50 µM (inactive)
24,CN(C)[C@@H]1C(=O)C(C(N)=O)=C(O)[C@@]2(O)C(=O)C3=C(O)c4c(O)cccc4[C@@](C)(O)[C@H]3C[C@@H]12,22.4 µM
25,CC1=CC(C#N)(C#N)C(C#N)(C#N)C(c2ccccc2)N1 (stereo not drawn),7.38 µM
26,CCc1cc(-c2[nH]ncc2-c2ccc3c(c2)OCO3)c(O)cc1O,1.97 µM

row,Compound,IC50
1,Oc1c(I)cc(Cl)c2cccnc12,> 50 µM (inactive)
2,COc1ccc(NCc2cc3cc(OC)ccc3[nH]c2=O)cc1,> 50 µM (inactive)
3,N#Cc1cc(S(=O)(=O)Nc2cc(O)cc3cccnc23)ccc1F,inactive
4,Cn1c(=O)c2c(nc(NCc3ccc4c(c3)OCO4)n2C)n(C)c1=O,> 50 µM (inactive)
5,COc1ccc(S(=O)(=O)N(C)CC(=O)N2CCC(C(N)=O)CC2)cc1Cl,> 50 µM (inactive)
6,Cc1ccc(S(=O)(=O)Nc2ccc(O)c(-c3ccccc3O)c2)cc1,> 50 µM (inactive)
7,O=[N+]([O-])c1cc(S(=O)(=O)Nc2ccc(F)c(-c3c(O)ccc4c3OCO4)c2)ccc1Cl,25 µM
8,N#C/C(=C\c1ccc(O)c(O)c1)C(=O)NCCCc1ccccc1,19.1 µM
9,Nc1cc(N)nc(SCC(=O)Nc2nncs2)n1,> 50 µM (inactive)
10,CCc1ccc(-c2nnn(CCC(=O)OC)n2)cc1,> 50 µM (inactive)
11,CCn1cc(C(=O)NCc2ccccn2)c(=O)c2cc(S(=O)(=O)N3CCCCC3)ccc21,17.4 µM
12,Cc1nc(SCC(=O)c2ccc(O)cc2O)n[nH]1,> 50 µM (inactive)
13,O=S(=O)(c1cccc(-c2nnco2)c1)N1CCCC1,> 50 µM (inactive)
14,COc1cc(NCCCC(C)=NO)c2nccc(OCc3ccccc3)c2c1,> 50 µM (inactive)
15,O=C(Cn1cnc2ccccc2c1=O)NCCC(=O)Nc1ccc2c(c1)OCCO2,> 50 µM (inactive)
16,O=S(=O)(Cc1ccc(Cl)cc1)Nc1ccc2c(c1)OCO2,> 50 µM (inactive)
17,COc1ccc(C2CC(=O)C3=C(C2)Nc2ncnn2C3c2ccccc2)cc1 (stereo not drawn),> 50 µM (inactive)
18,CCOc1cc(N2CCOCC2)c(OCC)cc1NC1=NCCCCC1,13 µM
19,Nc1ccc(CSc2ccc(Cl)cc2)c(O)c1,> 50 µM (inactive)
20,CCOc1ccc(S(=O)(=O)Nc2ccc3c(c2)OCO3)c2cccnc12,16 µM
21,Oc1ccc(-c2nc(-c3ccc(O)c(O)c3)cs2)cc1,0.74 µM
22,CCSc1nnc2c(n1)OC(c1ccc(C(=O)O)cc1)N(C(C)=O)c1ccccc1-2 (stereo not drawn),> 50 µM (inactive)
23,Cc1ccc(C(=O)O)cc1S(=O)(=O)NCC1CCCO1 (stereo not drawn),> 50 µM (inactive)
24,Oc1cc(O)c2ncccc2c1,> 50 µM (inactive)
25,Cc1noc(C(=O)Nc2ccc3c(c2)OCO3)c1Cl,22.5 µM
26,Nc1cc(N)nc(SCC(=O)Nc2nonc2N)n1,> 50 µM (inactive)

row,Compound,IC50
1,Cc1nc(-c2c(-c3ccc(O)cc3O)noc2C(F)(F)F)cs1,16.5 µM
2,CCn1c(CSc2nnc3ccccn23)nc2cc(C(=O)O)ccc21,1.11 µM
3,N#Cc1c(-c2ccco2)[nH]c(=O)[nH]c1=O,> 50 µM (inactive)
4,Nc1cccc2cc(O)ccc12,> 50 µM (inactive)
5,CCOc1ccc(NCC(=O)Nc2ccc(C)cc2C)cc1,7.86 µM
6,Cc1c(N=c2c(=O)c3ccccc3c2=O)c(=O)n(-c2ccccc2)n1C,20.6 µM
7,O=[N+]([O-])c1ccc(S(=O)(=O)Nc2cc(OCc3ccccc3)cc3cccnc23)cc1F,> 50 µM (inactive)
8,N#CCSc1nnc2[nH]c(=O)cc(N)n12,> 50 µM (inactive)
9,CCC(C)NCCNc1cc(OC)cc2cccnc12 (stereo not drawn),3.12 µM
10,Cc1[nH]c2c(N)cccc2c1C,> 50 µM (inactive)
11,COc1ccc(C2CC(c3ccccc3O)=NN2)cc1OC (stereo not drawn),> 50 µM (inactive)
12,O=C1c2ccccc2C(O)(O)C1(O)C1(O)C(=O)c2ccccc2C1(O)O (stereo not drawn),5 µM
13,COc1cccc(C(=O)NCC(=O)n2nc(C)cc2C)c1,> 50 µM (inactive)
14,CCOc1ccc2ccccc2c1-c1cc(NS(=O)(=O)c2cc(Cl)ccc2Cl)ccc1N,> 50 µM (inactive)
15,O=[N+]([O-])c1cc(O)cc2cccnc12,1.56 µM
16,COc1ccc2c3c(cccc13)NN=C2C,8.36 µM
17,O=S(=O)(NC1CCc2ccccc21)c1ccc(S(=O)(=O)N2CCCC2)cc1 (stereo not drawn),> 50 µM (inactive)
18,COc1ccc(-c2nc(CS(=O)CC(=O)NCc3ccccn3)c(C)o2)cc1 (stereo not drawn),19.3 µM
19,Cc1occc1C(=O)NC(C)C(C)(C)C (stereo not drawn),> 50 µM (inactive)
20,Cn1cnnc1SCC(=O)c1ccc2c(c1)CCCC2,> 50 µM (inactive)
21,O=[N+]([O-])c1cccc(S(=O)(=O)Nc2ccc(O)c(-c3ccccc3O)c2)c1,> 50 µM (inactive)
22,COc1ccccc1-c1nnc2n1N=C(c1ccc(O)c(O)c1)CS2,10.7 µM
23,COc1ccc(N2C(=O)CSC23C(=O)N2CCCc4cccc3c42)cc1 (stereo not drawn),> 50 µM (inactive)
24,COc1cccc2c1C(=O)c1c(O)c3c(c(O)c1C2=O)C[C@@](O)(C(=O)CO)C[C@@H]3O[C@H]1C[C@H](N)[C@H](O)[C@H](C)O1,0.266 µM
25,O=C(O)c1ccccc1C1=Nc2ccc(O)cc2Oc2cc(O)ccc21,13 µM
26,CC(=O)c1cccc(NC(=O)CSc2nnc(-c3ccc(S(=O)(=O)N4CCCC4)cc3)o2)c1,> 50 µM (inactive)
